Data: ChEMBL document CHEMBL1149441, “Cyclopropylamino acid amide as a pharmacophoric replacement for 2,3-diaminopyridine. Application to the design of novel bradykinin B1 receptor antagonists” (J Med Chem, 2006)

How the values were obtained:
[1] = Oral bioavailability in rat; type: ADME, organism-based; conditions: in vivo
[2] = target: T1, B2 bradykinin receptor (Homo sapiens, UniProt P30411); test: Binding affinity to bradykinin B2 receptor
T1 sequence (P30411 whole entry): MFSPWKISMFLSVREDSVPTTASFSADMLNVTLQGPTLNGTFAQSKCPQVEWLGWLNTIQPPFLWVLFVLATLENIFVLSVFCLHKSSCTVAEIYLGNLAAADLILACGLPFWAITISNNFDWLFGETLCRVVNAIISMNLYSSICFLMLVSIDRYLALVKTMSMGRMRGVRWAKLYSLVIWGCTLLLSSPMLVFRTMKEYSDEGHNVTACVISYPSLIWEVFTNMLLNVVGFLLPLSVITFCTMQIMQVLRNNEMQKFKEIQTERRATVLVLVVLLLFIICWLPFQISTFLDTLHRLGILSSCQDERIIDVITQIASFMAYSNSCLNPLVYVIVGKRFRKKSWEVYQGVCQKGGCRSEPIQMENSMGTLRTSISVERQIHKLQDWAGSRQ

[3] = Clearance in iv dosed rat; type: ADME, organism-based; conditions: in vivo
[4] = Half life in iv dosed rat; type: ADME, organism-based; conditions: in vivo
[5] = target: T2, B1 bradykinin receptor (Homo sapiens, UniProt P46663); test: Binding affinity to human bradykinin B1 receptor expressed in CHO cells; type: cell-based
T2 sequence (P46663 whole entry): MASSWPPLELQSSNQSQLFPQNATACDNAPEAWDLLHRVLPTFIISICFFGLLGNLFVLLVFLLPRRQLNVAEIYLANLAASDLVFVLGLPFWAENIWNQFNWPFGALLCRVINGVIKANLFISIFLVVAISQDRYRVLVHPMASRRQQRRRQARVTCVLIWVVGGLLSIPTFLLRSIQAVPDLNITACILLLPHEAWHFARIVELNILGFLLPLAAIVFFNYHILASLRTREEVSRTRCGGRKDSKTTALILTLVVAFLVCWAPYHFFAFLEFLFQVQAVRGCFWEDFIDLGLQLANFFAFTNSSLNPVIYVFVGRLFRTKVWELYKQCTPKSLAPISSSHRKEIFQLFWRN

Row | SMILES | bioavailability [1] | Ki [2] | clearance [3] | half-life [4] | Ki [5]
1 | COC(=O)c1ccccc1-c1ccc(CNC(=O)C2(NC(=O)c3cncnc3)CC2)cc1 |  | > 10 µM |  |  | 0.0255 µM
2 | COC(=O)c1ccccc1-c1ccc(CNC(=O)[C@@H](C)NC(=O)CC(F)(F)F)cc1 |  | > 10 µM |  |  | 1.58 µM
3 | COC(=O)c1ccccc1-c1ccc(CNC(=O)C2(NC(=O)c3cncc(C(F)(F)F)c3)CC2)cc1 |  | > 10 µM |  |  | 0.0018 µM
4 | COC(=O)c1ccccc1-c1ccc(CNC(=O)[C@H](C)NC(=O)CC(F)(F)F)cc1 |  | > 10 µM |  |  | > 50 µM
5 | COC(=O)c1ccccc1-c1ccc(CNc2ncccc2NC(=O)CC(F)(F)F)cc1 |  | > 10 µM |  | 0.15 h | 
6 | COC(=O)c1ccccc1-c1ccc(CNC(=O)C(C)(C)NC(=O)CC(F)(F)F)cc1 | 35% | > 10 µM | 4.2 mL/min/kg | 6.6 h | 
7 | COC(=O)c1ccccc1-c1ccc(CNC(=O)CNC(=O)CC(F)(F)F)cc1 |  | > 10 µM |  |  | 52 µM

Results, then the molecule that gave them:

Row | bioavailability [1] | Ki [2] | clearance [3] | half-life [4] | Ki [5] | SMILES
8 | 26% | > 10 µM | 9.3 mL/min/kg | 9.5 h |  | COC(=O)c1ccccc1-c1ccc(CNC(=O)C2(NC(=O)CC(F)(F)F)CC2)cc1
9 |  | > 10 µM |  |  | 0.462 µM | COC(=O)c1ccccc1-c1ccc(CNC(=O)C2(NC(=O)CC(F)(F)F)CCCC2)cc1
10 |  | > 10 µM |  |  | 0.119 µM | COC(=O)c1ccccc1-c1ccc(CNC(=O)C2(NC(=O)CC(F)(F)F)CCC2)cc1
11 | 25% | > 10 µM | 2.6 mL/min/kg | 12 h | 0.752 µM | COC(=O)c1ccccc1-c1ccc(CNC(=O)C2(NC(=O)CC(F)(F)F)CCCCC2)cc1
